The record followed here is patent publication US20090232735A1, “USE OF FRUCTOSE-BASED THERAPIES FOR THE TREATMENT OF CANCER” (CEDARS-SINAI MEDICAL CENTER, priority 2005, published 2009).

What all share (type): cell-based, human
The test system of assay [1] is ER negative MDA-MB231 breast cancer cells. Nature of the assay: Breast cancer cell proliferation (MTT assay), MDA-MB231. The method, then: Estrogen receptor (ER) positive MCF-7, and ER negative MDA-MB231 cells were plated in 5 mM fructose or glucose for times between 8-72 h, and proliferative rates measured using MTT assay. *, p<0.05; **, p<0.01.
FIG. 5 depicts fructose-mediated increased breast cancer proliferation in accordance with an embodiment of the present invention. ER positive MCF-7, and ER negative MDA-MB231 cells were plated in a range of fructose or glucose concentrations (5-25 mM) for 72 h, after which proliferative rates were measured using an MTT assay. *, p<0.05 for concentrations between 5-25 mM fructose versus glucose.
Standard media for breast cancer cell culture contain either 5-7 mM (low) and 12-25 mM (high) glucose concentrations. Estrogen receptor (ER) positive MCF-7, and ER negative MDA-MB231 cells were cultured overnight in 2 mM glucose standard DMEM medium containing 10% fetal bovine serum prior to incubation for periods between 8, and 72 hours in standard DMEM medium containing 10% fetal bovine serum, and 5 mM glucose or 5 mM fructose.
Proliferative rates were then measured in replicate (minimum of 6) aliquot wells of the breast cancer cells grown in glucose, or fructose containing medium. […] In separate experiments, proliferative rates of the MCF-7, and MDA-MB231 breast cancer cells were compared following culture in a range of fructose, and glucose concentrations (2-25 mM) for 72 hours.
In general terms: Tetrazolium assays rely on reduction of a dye to a coloured formazan, in cell work by metabolically active cells.

Assay [2] has as its system fructokinase-1 (FK-1) mRNA. As to the kind of experiment: Fructokinase-1 mRNA by RT-PCR in MCF-7 cells. Conditions: MCF-7, 5 mM sugar, compared with 2 mM glucose. The method, then: FIG. 7 depicts fructokinase-1 expression in accordance with an embodiment of the present invention. Breast cancer cells (MCF-7) express Fructokinase-1 (FK-1). RT-PCR was used to measure fructokinase-1 (FK-1) mRNA levels in MCF-7 cells following growth in 2 mM glucose, 5.5 mM glucose, or 5.5 mM fructose for 24 h, and in two human breast cancers (BT 1 & 2), and matched adjacent normal breast tissue (NB 1 & 2) from the same individual. […] Human liver, and exclusion of template served as positive and negative controls.
The inventors used RT-PCR analysis and specific primer pairs (SEQ ID NO: 1 (3′[…]), SEQ ID NO: 2 (5′[…])) to examine fructokinase-1 (FK-1) mRNA levels in glucose- or fructose-treated breast cancer cells. […] Also examined were FK-1 mRNA levels in two surgically resected human breast cancers, and paired adjacent normal breast tissue from the same individual. FK-1 mRNA was detectable in both normal and tumor tissue.

The next assay deals with GLUT-5 mRNA. As to the kind of experiment: GLUT-5 mRNA by quantitative real-time RT-PCR in MCF-7 cells. As to the method:
FIG. 10 depicts GLUT-5 expression levels in accordance with an embodiment of the present invention. MCF-7 breast cancer cells were incubated in 2 mM glucose (Glu), 5.5 mM glucose (Glu) or 5.5 mM fructose (Fru) for 4 or 24 hours, after which GLUT-5 expression was quantified using real-time RT-PCR, normalized to GAPDH levels, and expressed as fold-increase compared to GLUT-5 levels detected in MCF-7 cells cultured in 2 mM glucose for a similar time period.
Cellular fructose uptake is facilitated by a member of solute carrier family 2, called glucose transporter type 5 (GLUT-5). Following incubation of MCF-7 breast cancer cells in 2 mM, 5.5 mM glucose or 5.5 mM fructose for […], total RNA was harvested, and analyzed by quantitative real-time RT-PCR analysis using GLUT-5 specific primers to quantify GLUT-5 mRNA expression. GLUT-5 expression was normalized to GAPGH mRNA expression, and expressed as fold-change in comparison to control breast cancer cells incubated in 2 mM glucose for 4, and 24 hours.

With `O=C(CO)[C@@H](O)[C@H](O)[C@H](O)CO` [fructose], the “proliferative rates in fructose compared to glucose” value in assay [1] (MDA-MB231, 5 mM fructose vs 5 mM glucose, 8-72 h) is “higher proliferative rates”. The “proliferative rates in 5 mM fructose compared to 25 mM glucose” value in assay [1] (MDA-MB231, 72 hours, 5 mM fructose vs 5-fold higher glucose (25 mM)) was “higher proliferative rates”. Also, the “FK-1 mRNA levels (RT-PCR)” value in assay [2] is recorded as “highest FK-1 levels”. Besides, the “increase in GLUT-5 mRNA compared to cells in 5.5 mM glucose” value in the assay with GLUT-5 mRNA (MCF-7, 5.5 mM fructose, 24 hour incubation) is given as “two-fold increase”. For the same molecule, in the assay with GLUT-5 mRNA (MCF-7, 4 hours, vs 2 mM glucose), the “change in GLUT-5 mRNA expression” value was “no significant change”.
